Data: patent US20100061928A1, “LABELLED ANALOGUES OF HALOBENZAMIDES AS RADIOPHARMACEUTICALS” (Institut National De La Sante et De La Recherche Medicale …, priority 2006, published 2010)

Assays:
tumour = experiment: Dosimetry with regard to the tumour (MIRD programme, extrapolated to ^131I)
[1] = Elimination of the molecules: cumulative urinary and faecal excretion 0-72 hours; type: in vivo, mouse
[2] = tested on: grafted B16 F0 murine melanoma tumour; experiment: Biodistribution of the ^125I-labelled molecules in the melanoma-bearing mouse (autoradiography of whole-body sections); conditions: for Concentration of radioactivity, B 16 (tumour), Mean / Concentration of radioactivity, Ic (intestinal contents), Mean / Concentration of radioactivity, Sc (stomach contents), Mean / Concentration of radioactivity, blood (measured in the heart cavity), Mean / Concentration of radioactivity, brain, Mean / Concentration of radioactivity, kidney, Mean / Concentration of radioactivity, liver, Mean / Concentration of radioactivity, lungs, Mean / Concentration of radioactivity, muscle (skeletal muscle), Mean / Concentration of radioactivity, pancreas, Mean / Concentration of radioactivity, spleen, Mean / Concentration of radioactivity, uvea (pigmented tissues of the eye), Mean: ^125I-labelled compound

## CCN(CC)CCNC(=O)c1ccc2cc(I)ccc2n1.Cl.Cl [compound 31, N-(2-diethylaminoethyl)-6-iodoquinoline-2-carboxamide dihydrochloride]
tumour; extrapolated to 131I labelling
  Effective period: 31.8 h
tumour; from biodistribution data
  Biological period: 38.0 hours
[1]; cumulative excretion 0-72 hours, faeces, mice in metabolic cages
  Faecal elimination 0-72 hours (Faeces): 11.4%
[1]; cumulative excretion 0-72 hours, urine + faeces
  Urinary and faecal elimination 0-72 hours (Total): 91.2%
[1]; cumulative excretion 0-72 hours, urine, mice in metabolic cages
  Urinary elimination 0-72 hours (Urine): 80.7%
[1]; urinary versus faecal, 0-72 hours
  elimination route (in words): predominantly in the urine
[2]; 1 H after i.v. administration
  Concentration of radioactivity, B 16 (tumour), Mean: 19.63 % ID/g
  Concentration of radioactivity, Ic (intestinal contents), Mean: 15.78 % ID/g
  Concentration of radioactivity, Sc (stomach contents), Mean: 48.03 % ID/g
  Concentration of radioactivity, blood (measured in the heart cavity), Mean: 7.01 % ID/g
  Concentration of radioactivity, brain, Mean: 1.96 % ID/g
  Concentration of radioactivity, kidney, Mean: 11.82 % ID/g
  Concentration of radioactivity, liver, Mean: 10.92 % ID/g
  Concentration of radioactivity, lungs, Mean: 9.41 % ID/g
  Concentration of radioactivity, muscle (skeletal muscle), Mean: 1.79 % ID/g
  Concentration of radioactivity, pancreas, Mean: 9.80 % ID/g
  Concentration of radioactivity, spleen, Mean: 11.56 % ID/g
  Concentration of radioactivity, uvea (pigmented tissues of the eye), Mean: 32.71 % ID/g
[2]; 3 H after i.v. administration
  Concentration of radioactivity, B 16 (tumour), Mean: 25.35 % ID/g
  Concentration of radioactivity, Ic (intestinal contents), Mean: 20.65 % ID/g
  Concentration of radioactivity, Sc (stomach contents), Mean: 34.72 % ID/g
  Concentration of radioactivity, blood (measured in the heart cavity), Mean: 5.57 % ID/g
  Concentration of radioactivity, brain, Mean: 0.83 % ID/g
  Concentration of radioactivity, kidney, Mean: 12.59 % ID/g
  Concentration of radioactivity, liver, Mean: 8.89 % ID/g
  Concentration of radioactivity, lungs, Mean: 5.58 % ID/g
  Concentration of radioactivity, muscle (skeletal muscle), Mean: 1.14 % ID/g
  Concentration of radioactivity, pancreas, Mean: 6.17 % ID/g
  Concentration of radioactivity, spleen, Mean: 10.63 % ID/g
  Concentration of radioactivity, uvea (pigmented tissues of the eye), Mean: 33.10 % ID/g
[2]; 6 H after i.v. administration
  Concentration of radioactivity, B 16 (tumour), Mean: 17.21 % ID/g
  Concentration of radioactivity, Ic (intestinal contents), Mean: 23.36 % ID/g
  Concentration of radioactivity, Sc (stomach contents), Mean: 65.36 % ID/g
  Concentration of radioactivity, blood (measured in the heart cavity), Mean: 5.91 % ID/g
  Concentration of radioactivity, brain, Mean: 0.37 % ID/g
  Concentration of radioactivity, kidney, Mean: 7.60 % ID/g
  Concentration of radioactivity, liver, Mean: 7.11 % ID/g
  Concentration of radioactivity, lungs, Mean: 5.32 % ID/g
  Concentration of radioactivity, muscle (skeletal muscle), Mean: 0.95 % ID/g
  Concentration of radioactivity, spleen, Mean: 7.60 % ID/g
  Concentration of radioactivity, uvea (pigmented tissues of the eye), Mean: 36.62 % ID/g
[2]; 24 H after i.v. administration
  Concentration of radioactivity, B 16 (tumour), Mean: 12.13 % ID/g
  Concentration of radioactivity, Ic (intestinal contents), Mean: 1.45 % ID/g
  Concentration of radioactivity, Sc (stomach contents), Mean: 2.33 % ID/g
  Concentration of radioactivity, kidney, Mean: 0.34 % ID/g
  Concentration of radioactivity, liver, Mean: 2.25 % ID/g
  Concentration of radioactivity, lungs, Mean: 0.53 % ID/g
  Concentration of radioactivity, spleen, Mean: 2.66 % ID/g
  Concentration of radioactivity, uvea (pigmented tissues of the eye), Mean: 22.27 % ID/g
[2]; 72 H after i.v. administration
  Concentration of radioactivity, B 16 (tumour), Mean: 5.93 % ID/g
  Concentration of radioactivity, liver, Mean: 1.23 % ID/g
  Concentration of radioactivity, spleen, Mean: 1.85 % ID/g
  Concentration of radioactivity, uvea (pigmented tissues of the eye), Mean: 18.30 % ID/g
[2]; at 72 hours (FIG. 1B)
  tumour concentration, times higher than with BZA: 8 times
[2]; from the first hour
  tumour concentration, % of the injected dose per gram of tumour: 19.6 % ID/g
